Reference: patent US6403591B1, “1-azatricyclic-4-benzylpiperazines” (Neurogen Corporation, priority 1999, dated 2002)

Experiments:
human α1 receptor = test: α1 receptor binding, 3H-prazosine, CHO cell membranes; settings: recombinant human α1 in CHO cells
Procedure: (§1) Pellets of Chinese hamster ovary (CHO) cells containing recombinantly produced primate D2, human D4 and human α1 receptors are used for the assays. The sample is homogenized in 100 volumes (w/vol) of 0.05 M Tris HCl buffer containing 120 mM NaCl, 5 mM MgCl2 and 1 mM EDTA at 4° C. and pH 7.4. The sample is then centrifuged at 30,000×g, resuspended and rehomogenized. The sample is then recentrifuged at 30,000×g, the supernatant is removed and the final tissue sample is frozen until it is needed. The tissue is resuspended 1:20 (wt/vol) in 0.05 M Tris HCl buffer containing 120 mM NaCl.
Norepinephrine al binding is carried out using ^3H-prazosine as the ligand. Nonspecific binding is determined in the presence of 1 μM prazosine. Preferably, dopamine antagonists should not interact with the α1 adrenergic receptor, as interactions with this G-coupled protein receptor give rise to types of hypotension.

human D4 receptor = biological target: T1, human D4 receptor (Homo sapiens, UniProt P21917); test: D4 receptor binding, 3H-YM 09151-2, CHO cell membranes; settings: recombinant human D4 in CHO cells, 0.1 nM 3H-YM 09151-2, 25° C.
T1 sequence (P21917 1-419): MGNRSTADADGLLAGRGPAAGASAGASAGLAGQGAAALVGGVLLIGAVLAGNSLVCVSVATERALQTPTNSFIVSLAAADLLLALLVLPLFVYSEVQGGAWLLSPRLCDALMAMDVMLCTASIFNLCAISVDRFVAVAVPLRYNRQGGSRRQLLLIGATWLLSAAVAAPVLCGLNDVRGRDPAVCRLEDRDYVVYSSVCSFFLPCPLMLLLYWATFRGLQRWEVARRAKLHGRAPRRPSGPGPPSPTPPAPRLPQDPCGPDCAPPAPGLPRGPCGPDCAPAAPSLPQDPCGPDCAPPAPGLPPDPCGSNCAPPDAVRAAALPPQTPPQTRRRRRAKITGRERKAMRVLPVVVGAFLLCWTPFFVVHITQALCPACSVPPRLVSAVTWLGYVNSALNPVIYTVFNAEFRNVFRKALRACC
Procedure: (§2) The following assay is a standard assay for determining the binding affinity of compounds to dopamine D4 and D2 receptors.
as §1
(§3) Incubations for dopaminergic binding are carried out at 25° C. and contain 0.4 ml of tissue sample, 0.1 nM ^3H-YM 09151-2 (Nemonapride, cis-5-Chloro-2-methoxy-4-(methylamino)-N-(2-methyl-2-(phenylmethyl)-3-pyrrolidinyl)benzamide) and the compound of interest in a total incubation of 1.0 ml. Nonspecific binding is defined as that binding found in the presence of 1 μM spiperone; without further additions, nonspecific binding is less than 20% of total binding.

primate D2 receptor = primate D2 receptor (UniProt P52702); test: D2 receptor binding, 3H-YM 09151-2, CHO cell membranes; settings: recombinant primate D2 in CHO cells, 0.1 nM 3H-YM 09151-2, 25° C.
Procedure: as §2, §1, §3

primate D2 receptor, sequence (P52702 whole entry): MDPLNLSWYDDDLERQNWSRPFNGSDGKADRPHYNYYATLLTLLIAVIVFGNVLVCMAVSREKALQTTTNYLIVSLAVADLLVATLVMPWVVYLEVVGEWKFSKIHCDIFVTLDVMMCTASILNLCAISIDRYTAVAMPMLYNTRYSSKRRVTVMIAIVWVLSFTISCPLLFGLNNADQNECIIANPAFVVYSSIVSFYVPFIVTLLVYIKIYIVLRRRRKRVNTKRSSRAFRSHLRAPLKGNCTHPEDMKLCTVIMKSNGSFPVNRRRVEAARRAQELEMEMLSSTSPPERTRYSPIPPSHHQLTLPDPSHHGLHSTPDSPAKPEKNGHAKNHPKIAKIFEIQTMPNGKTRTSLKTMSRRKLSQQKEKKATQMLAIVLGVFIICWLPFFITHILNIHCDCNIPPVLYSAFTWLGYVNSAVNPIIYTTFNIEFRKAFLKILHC

| Structure (SMILES) | Ki (human α1 receptor) | Ki (human D4 receptor) | Ki (primate D2 receptor) |
| --- | --- | --- | --- |
| CC1Cc2cccc3c2N1C(=O)C(N1CCN(Cc2ccc(Cl)cc2)CC1)CC3 (mixture of isomers) [Compound 4] | > 1000 nM | 9 nM | 50 nM |
| Cc1ccc(CN2CCN(C3CCc4cccc5c4N(CC5)C3=O)CC2)cc1 (centres unmarked) [Compound 1, 5-[(4-methylbenzyl)piperazin-1-yl]-1,2,4,5,6,7-hexahydro-4-oxo-pyrrolo-[3,2,1-jk][1]benzazepine] |  | 4 nM |  |
| CC1(C)Cc2cccc3c2N1C(=O)C(N1CCN(Cc2ccc(Cl)cc2)CC1)CC3 (centres unmarked) [Compound 2, 5-[(4-chlorobenzyl)piperazin-1-yl]-2,2-dimethyl-1,2,4,5,6,7-hexahydro-4-oxo-pyrrolo-[3,2,1-jk][1]benzazepine] |  | 19 nM |  |
